The text below walks through data of PMC10333360, “Establishing mammalian GLUT kinetics and lipid composition influences in a reconstituted-liposome system” (Nature Communications, 2023).

pIC50: −log10 of the molar value.

Test [1] has as its target T1, rGLUT5 (Rattus norvegicus, UniProt P43427).
T1 construct: gene Slc2a5
T1 sequence (P43427 1-502): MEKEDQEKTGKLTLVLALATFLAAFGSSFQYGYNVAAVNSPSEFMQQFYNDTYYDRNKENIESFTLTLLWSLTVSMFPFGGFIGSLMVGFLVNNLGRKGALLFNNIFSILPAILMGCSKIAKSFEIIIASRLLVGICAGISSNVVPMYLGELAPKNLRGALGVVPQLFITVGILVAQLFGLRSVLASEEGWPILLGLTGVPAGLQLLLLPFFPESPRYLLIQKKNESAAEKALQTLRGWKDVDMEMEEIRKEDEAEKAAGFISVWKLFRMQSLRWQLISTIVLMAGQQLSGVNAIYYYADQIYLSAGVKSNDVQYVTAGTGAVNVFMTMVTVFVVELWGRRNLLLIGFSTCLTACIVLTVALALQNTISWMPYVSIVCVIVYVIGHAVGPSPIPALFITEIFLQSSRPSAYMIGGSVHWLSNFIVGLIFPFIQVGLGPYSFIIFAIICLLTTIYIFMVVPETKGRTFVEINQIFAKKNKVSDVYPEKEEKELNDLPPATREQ
The experiment in a line: competitive […]-D-fructose uptake in proteoliposomes, […] compound, […] reduction. The class given is biochemical.

Test [2] has as its target T1, rGLUT5. In words: inhibition of […]-D-fructose uptake by purified rGLUT5 in brain-fraction-seven proteoliposomes. It is filed as biochemical.

As for `Cc1ccc(NC(=O)Oc2ccccc2)cc1` [C2, phenyl-n-(p-tolyl)-carbamate], on rGLUT5 [1], the “% reduction” value stood at 20 % reduction.

Take `Cc1ccc(NC(=O)Oc2ccc(C)cc2)cc1` [H4, 4-methylphenyl-N-(4-methylphenyl)-carbamate]: the pIC50 against rGLUT5 [2] is 3.30.

Broadly, the pIC50 is the IC50 on a negative log10 scale, so that one unit is a factor of ten.
